Results: ChEMBL document CHEMBL1123383, “Multisubstrate inhibitors of dopamine beta-hydroxylase. 1. Some 1-phenyl and 1-phenyl-bridged derivatives of imidazole-2-thione” (J Med Chem, 1986)

Target: T1, Dopamine beta-hydroxylase (Bos taurus, UniProt P15101)
T1 sequence (P15101 whole entry): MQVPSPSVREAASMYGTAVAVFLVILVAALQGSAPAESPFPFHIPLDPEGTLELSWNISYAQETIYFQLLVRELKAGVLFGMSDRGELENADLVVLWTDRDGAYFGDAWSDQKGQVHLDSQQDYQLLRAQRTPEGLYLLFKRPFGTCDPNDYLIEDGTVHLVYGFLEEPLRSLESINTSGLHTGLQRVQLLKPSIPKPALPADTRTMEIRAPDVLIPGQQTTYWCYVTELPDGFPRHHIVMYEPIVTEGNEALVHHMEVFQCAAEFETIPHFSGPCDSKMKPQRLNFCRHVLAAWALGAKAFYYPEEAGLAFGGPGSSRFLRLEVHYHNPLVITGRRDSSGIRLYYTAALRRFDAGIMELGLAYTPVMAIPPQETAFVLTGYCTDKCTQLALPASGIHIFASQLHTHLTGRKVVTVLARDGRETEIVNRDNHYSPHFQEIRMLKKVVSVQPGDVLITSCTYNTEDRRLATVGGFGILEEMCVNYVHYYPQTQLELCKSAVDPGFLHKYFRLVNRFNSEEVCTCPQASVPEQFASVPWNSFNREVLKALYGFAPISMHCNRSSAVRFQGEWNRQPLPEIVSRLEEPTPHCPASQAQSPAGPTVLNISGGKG
Assay: Inhibition of Dopamine beta hydroxylase.

IC50 [µM]	SMILES
103	S=c1[nH]ccn1CCSc1ccccc1
29	CC(Cc1ccccc1)Cn1cc[nH]c1=S (configuration not stated)
87	S=c1[nH]ccn1CCOc1ccccc1
16	Sc1nccn1CCCc1ccccc1
754	Cn1cc[nH]c1=S [METHIMAZOLE]
2.6	Oc1ccc(Cn2cc[nH]c2=S)cc1
23	Oc1ccc(CCn2cc[nH]c2=S)cc1
152	COc1ccc(CCCCn2cc[nH]c2=S)cc1
18	CC(CCn1cc[nH]c1=S)c1ccccc1 (configuration not stated)
370	Oc1ccc(-n2ccnc2S)cc1
2.2	Oc1ccc(CCCn2cc[nH]c2=S)cc1
180	COc1ccc(CCCn2cc[nH]c2=S)cc1
325	CC(CCc1ccccc1)n1ccnc1S (configuration not stated)
109	COc1ccc(CCCCCn2cc[nH]c2=S)cc1
202	COc1ccc(Cn2cc[nH]c2=S)cc1
32	S=c1[nH]ccn1Cc1ccccc1
110	Sc1nccn1-c1ccccc1
68	COc1ccc(CCn2ccnc2S)cc1

Target: T1, Dopamine beta-hydroxylase
Assay: Compound was evaluated for the inhibition of Dopamine beta hydroxylase at pH 6.6

Ki [µM]	SMILES
716	Cn1cc[nH]c1=S [METHIMAZOLE]

Target: T2, Dopamine beta-hydroxylase (Bos taurus) (UniProt P15101)
T2 sequence (whole entry): T1 sequence (P15101 whole entry)
Assay: Compound was evaluated for the inhibition of Dopamine beta hydroxylase at a concentration of 10e-4 M.

inhibition [%]	SMILES
30	Oc1ccc(CCCCCn2ccnc2S)cc1

Target: T2, Dopamine beta-hydroxylase (Bos taurus)
Assay: Inhibition of Dopamine beta hydroxylase at a concentration of 10e-4 M.

inhibition [%]	SMILES
25	COc1ccc(-n2ccnc2S)cc1
5	O=S(=O)(CCn1ccnc1S)c1ccccc1
4	NC(=O)C(c1ccccc1)n1ccnc1S (configuration not stated)
5	OC(Cc1ccccc1)Cn1ccnc1S (configuration not stated)
0	NCC(c1ccccc1)n1ccnc1S (configuration not stated)
12	Oc1ccc(CCCCn2ccnc2S)cc1

Target: T1, Dopamine beta-hydroxylase
Assay: Compound was evaluated for the inhibition of Dopamine beta hydroxylase at pH 4.5

Ki [µM]	SMILES
45	Cn1cc[nH]c1=S [METHIMAZOLE]
